Measurements taken from patent US11814392B2, “Chromenopyridine-based compounds and methods of making and use thereof” (Rosalind Franklin University of Medicine and Science, priority 2020, dated 2023).

Target: T1, PMCT (Homo sapiens, UniProt Q86YT5)
T1 construct: expressed in transfected cells; host or cells: HEK293T cells transfected with pcDNA3.1(+)-SLC13A5 using PEI
Assay: PMCT inhibition, citrate transport assay of whole HEK293T cells
Format: cell-based
Settings: for dose-dependence of PMCT inhibition / PMCT Inhibition: HEK293T cells; for dose-dependence of PMCT inhibition: even at moderate concentrations (FIG. 1); for inhibition at 2.8 µM / inhibition at 28 µM / inhibition at 140 µM / inhibition at 280 µM: HEK-293T; for inhibition at 2.8 µM: read-out: PMCT Inhibition, Inhibitor Concentration 2.8 μM, HEK293T cells; for inhibition at 28 µM: read-out: PMCT Inhibition, Inhibitor Concentration 28 μM, HEK293T cells; for inhibition at 140 µM: read-out: PMCT Inhibition, Inhibitor Concentration 140 μM, HEK293T cells; for inhibition at 280 µM: read-out: PMCT Inhibition, Inhibitor Concentration 280 μM, HEK293T cells; for PMCT Inhibition: Inhibitor Concentration 280 μM, 280 µM

T1 sequence (Q86YT5 whole entry): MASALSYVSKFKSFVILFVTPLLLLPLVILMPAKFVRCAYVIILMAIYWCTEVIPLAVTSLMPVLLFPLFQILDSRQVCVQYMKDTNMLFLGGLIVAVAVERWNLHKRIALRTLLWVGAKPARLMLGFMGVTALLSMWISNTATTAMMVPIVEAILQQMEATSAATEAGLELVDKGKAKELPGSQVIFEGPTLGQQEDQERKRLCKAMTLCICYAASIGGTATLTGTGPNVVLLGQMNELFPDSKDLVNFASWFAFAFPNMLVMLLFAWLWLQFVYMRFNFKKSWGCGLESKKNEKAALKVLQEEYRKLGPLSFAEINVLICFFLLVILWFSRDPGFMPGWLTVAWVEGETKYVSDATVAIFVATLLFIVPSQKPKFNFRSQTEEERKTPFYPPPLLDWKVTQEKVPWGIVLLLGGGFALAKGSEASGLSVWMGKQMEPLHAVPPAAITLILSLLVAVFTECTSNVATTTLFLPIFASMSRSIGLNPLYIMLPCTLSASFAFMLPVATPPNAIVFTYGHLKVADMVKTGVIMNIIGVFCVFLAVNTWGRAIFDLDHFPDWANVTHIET

Compound | dose-dependence of PMCT inhibition | inhibition at 2.8 µM | inhibition at 28 µM | inhibition at 140 µM | inhibition at 280 µM | PMCT Inhibition
COc1ccc(SC2c3c(OC)cc(OC)cc3Oc3nc(N)c(C#N)c(N)c32)cc1 (stereo not shown) [Compound 2, 2,4-diamino-6,8-dimethoxy-5-((4-methoxyphenyl)thio)-5H-chromeno[2,3-b]pyridine-3-carbonitrile] | dose-dependent inhibition | 34.7% | 24% | 48.5% | 50% | –
CSc1ccc(SC2c3ccc(O)cc3Oc3nc(N)c(C#N)c(N)c32)cc1 (stereo not shown) [Compound 3, 2,4-Diamino-8-hydroxy-5-((4-(methylthio)phenyl)thio)-5H-chromeno[2,3-b]pyridine-3-carbonitrile] | dose-dependent inhibition | 6.2% | 9.9% | 28.6% | 58.7% | –
CCN(CC)c1ccc2c(c1)Oc1nc(N)c(C#N)c(N)c1C2Sc1ccc(OC)cc1 (stereo not shown) [Compound 4, 2,4-diamino-8-(diethylamino)-5-((4-methoxyphenyl)thio)-5H-chromeno[2,3-b]pyridine-3-carbonitrile] | – | -23.2% | 28.6% | – | -8.7% | –
COc1ccc(SC2c3ccc(O)cc3Oc3nc(N)c(C#N)c(N)c32)cc1 (stereo not shown) [Compound 5, 2,4-Diamino-8-hydroxy-5-((4-methoxyphenyl)thio)-5H-chromeno[2,3-b]pyridine-3-carbonitrile] | – | -12.8% | -4.5% | – | -3.2% | –
COc1cc2c(cc1OC)C(Sc1ccc(SC)cc1)c1c(nc(N)c(C#N)c1N)O2 (stereo not shown) [Compound 6, 2,4-diamino-7,8-dimethoxy-5-((4-(methylthio)phenyl)thio)-5H-chromeno[2,3-b]pyridine-3-carbonitrile] | dose-dependent inhibition | 9.4% | -45.9% | 46.8% | 70.2% | 87.4%
COc1ccc2c(c1)Oc1nc(N)c(C#N)c(N)c1C2Sc1ccc(O)cc1 (stereo not shown) [Compound 7, 2,4-Diamino-5-((4-hydroxyphenyl)thio)-8-methoxy-5H-chromeno[2,3-b]pyridine-3-carbonitrile] | dose-dependent inhibition | 28% | -13.3% | 42.5% | 62.9% | 77.7%
CCN(CC)c1ccc2c(c1)Oc1nc(N)c(C#N)c(N)c1C2Sc1ccc(SC)cc1 (stereo not shown) [Compound 8, 2,4-diamino-8-(diethylamino)-5-((4-(methylthio)phenyl)thio)-5H-chromeno[2,3-b]pyridine-3-carbonitrile] | – | -41.5% | -1.5% | – | 58.4% | –
CSc1ccc(SC2c3ccc(C)cc3Oc3nc(N)c(C#N)c(N)c32)cc1 (stereo not shown) [Compound 9, 2,4-Diamino-8-methyl-5-((4-(methylthio)phenyl)thio)-5H-chromeno[2,3-b]pyridine-3-carbonitrile] | – | 35.7% | 1.8% | – | 35.7% | –
